According to publication PMC5958115, “A novel small molecule chaperone of rod opsin and its potential therapy for retinal degeneration” (Nature Communications, 2018):
pEC50: −log10 of the molar value.

How the values were obtained:
mouse P23H-opsin mutant = mouse P23H-opsin mutant (Mus musculus, UniProt P15409, P23H); test: β-Gal fragment complementation assay: rescue of P23H opsin transport from ER to plasma membrane, U2OS(PLC-EA/P23H-PK) cells; assay type: cell-based; settings: for β-Gal fragment complementation assay Activity score (%) Max (Exp) / β-Gal fragment complementation assay Activity score (%) Max (fit) / Efficacy: 24 h, 5 µM 9-cis-retinal = 100%; for β-Gal fragment complementation assay Activity score (%) Max (Exp): experimental maximum; for β-Gal fragment complementation assay Activity score (%) Max (fit) / Efficacy: from curve fitting; for pEC50: 24 h preincubation, activity standardized to 5 µM 9-cis-retinal as 100%, Hill fit, read-out: β-Gal fragment complementation assay Activity score (%) EC50
Source text: U2OS(PLC-EA/P23H-PK) cells. A U2OS stable cell line was generated by DiscoveRx, Inc. (Fremont, CA, USA) for the β-Gal fragment complementation assay used in the small-molecule HTS for rescue of P23H-opsin transport. U2OS cells that continually express P23H-PK and PLC-EA fusion proteins were generated. Briefly, this small subunit of β-Gal (PK fragment) was fused to the C-terminal of the mouse P23H-opsin mutant, while the large EA fragment, a subunit of β-Gal, was fused with PLC, a plasma membrane-anchored peptide. Both constructs were subcloned by DicoveRx, Inc. and transferred into U2OS cells by viral infections. Positive clones were selected under treatment with hygromycin and geneticin.
Briefly, U2OS(PLC-EA /P23H-PK) cells were suspended in assay medium at 3 × 10^5 cells mL^−1. The cell suspension was dispensed into 384-well plates (Greiner Bio-one, Monroe, NC, USA) at 20 µL per well, with a Multidrop dispenser (Thermo Scientific, Waltham, MA, USA). Plates with cells then were centrifuged at 200×g for 15 s before incubation at 37 °C with 5% CO2. Plates were removed 24 h later for treatment with tested compounds. A total of 248 plates containing 79,080 compounds from three small-molecule libraries were paired with an equal number of assay plates with cultured cells. Owing to a limited capacity, these plates were assayed in seven batches. An average of 56.3 nL of 10 mM compound in DMSO was dispensed into each well from column 3 to 22 of paired assay plates using a 50 nL 384-pintool system, such that the final concentration of each compound was 22.52 µM on average. […] Each assay plate was shaken for 5 s before further incubation at 37 °C with 5% CO2. After 24 h, assay plates were removed, and each well was incubated with 25 µL of 1× Gal-Screen assay buffer (1:24 substrate-buffer ratio). Assay plates were incubated in the dark for 60–90 min, and luminescence was read from each assay plate with an Envision microplate reader (PerkinElmer) during a 0.1 s per well integration time. The mean and s.d. of readouts in column 2 of each plate were calculated as Mean0% and SD0%, whereas the average and s.d. of readouts in column 23 were calculated as Mean100% and SD100%. Eq. 1: Activity scores (%) = (RLUcp − Mean0%)/(Mean100% − Mean0%) × 100%, where RLUcp is the relative luminescence unit derived for cells treated with a compound. Eq. 2: Z′-factor = 1–3 × (SD0% + SD100%)/(Mean100% − Mean0%)[32]; Eq. 3: signal-to-background (S/B) ratio = Mean100%/Mean0%. Activities of all tested compounds were registered with their compound ID by GeneData Screener (Genedata, Basel, Switzerland) and Pipeline Pilot software (Accelrys, San Diego, CA, USA). Hits, cherry-picked from a separate stock dose-dependent activity test, were selected with an activity score cutoff at 20%. Activity of each hit was tested again with the β-Gal fragment complementation assay in a 10-dose series with each dose tested in triplicate. The 10 doses tested were 80, 40, 20, 10, 5, 2.5, 1.25, 0.625, 0.313, and 0.156 µM. Dose-dependent curves of each hit compound were fitted with GeneData and Origin software.
Detailed synthetic steps are described in Supplementary Note and Supplementary Fig. 9. […] YC-002-YC-021 were purchased from commercial vendors including Enamine LLC (Monmouth Jct., NJ, USA), Matrix Scientific (Columbia, SC, USA) and Tokyo Chemical Industry Co., Ltd. (Portland, OR, USA). […] Activities of YC compounds were tested with the β-Gal fragment complementation assay, as described in a prior section. All YC compounds were tested at 10 doses, each in triplicate: 80, 40, 20, 10, 5, 2.5, 1.25, 0.625, 0.313, and 0.156 µM.

mouse P23H opsin = target: T1, mouse P23H opsin (Mus musculus, UniProt P15409, P23H); test: High-content imaging analysis of P23H opsin immunostaining in NIH3T3-(P23H opsin/GFP) cells; assay type: cell-based; settings: ratio of P23H rod opsin fluorescence on plasma membrane to whole cell; for EC50: read-out: Immunostaining HCS MEM-Total ratio EC50
T1 construct: expressed in transfected cells
Procedure: To characterize the effect of active compounds on the localization of P23H-mutant opsin in mammalian cells, an image-based assay was used with cells immunostained for WT or P23H-mutant opsin protein[18]. Briefly, NIH3T3-(P23H opsin/GFP) or NIH3T3-(WT-opsin/GFP) cells were seeded at 5000 cells per well in a 384-well cell-carrier plate (PerkinElmer) and incubated at 37 °C with 5% CO2 for 2 h. Cells were treated with compounds as described for the β-Gal fragment complementation assay and incubated in assay medium for 24 h. The assay medium then was aspirated, and cells were fixed with 4% paraformaldehyde at 20 µL per well for 20 min at RT. Cells were immunostained in one of two ways: cell membranes were either permeabilized with 0.1% Triton X-100 for 15 min or left intact and then were incubated with 10% goat serum (Life Technologies). To detect opsin on the cell plasma membrane only, intact cells were immunostained with 20 µL per well of 20 µg mL^−1 B6-30 anti-rhodopsin antibody that recognizes the N-terminal epitope on the extracellular side of rhodopsin. To detect total opsin, cells were permeabilized with Triton X-100 and immunostained with 50 µg mL^−1 1D4 anti-rhodopsin antibody specific for the C-terminal epitope on the intracellular side of rhodopsin. Opsin immunostaining was visualized by incubating cells with 5 µg mL^−1 Cy3-conjugated goat anti-mouse IgG antibody. Three washes with phosphate-buffered saline (PBS: 10 mM Na2HPO4, 1.8 mM KH2PO4, pH 7.4, 137 mM NaCl, and 2.7 mM KCl) were performed between each step of incubation with antibody. In the last wash with PBS, DAPI was added to each well at 300 nM. Fluorescence images were obtained with the Operetta High Content Imaging System (PerkinElmer) using a ×20 long objective. Five fields were taken of each well for cell images using three channels for fluorescence: GFP (100 ms), Cy3 (300 ms), and DAPI (50 ms). Images were analyzed with Acapella software from the Columbus data storage and analysis system (PerkinElmer)[18]. For cells immunostained with opsin on the non-permeabilized cell membrane only, an average of total fluorescence intensity of Cy3 per cell was used to quantify opsin in each well of the 384-well plate. For cells immunostained with opsin in permeabilized whole cells, an average ratio of Cy3 intensity on the cell plasma membrane (PM) to that of the entire cell (opsin ratio PM-to-total) was calculated for each well of a 384-well plate to quantify opsin transport to the plasma membrane. The plasma membrane was defined within ± 5% of the cell border.

P23H opsin = target: T2, P23H opsin (Mus musculus, UniProt P15409, P23H); test: Immunoblot of P23H opsin glycosylation in NIH3T3 cell lysates; assay type: cell-based; set-up: key to Improved glycosylation: n = no; y = yes; settings: P23H opsin
T2 construct: expressed in transfected cells
Procedure: NIH3T3-(P23H opsin/GFP) or NIH3T3-(WT-opsin/GFP) cells were seeded in a 48-well plate (Corning Costar) at 3.2 × 10^5 cells per well and incubated at 37 °C with 5% CO2 for 2 h. One hundred-µL of assay medium containing a compound at 5× its final concentration was added to each well. The plate was gently shaken for 5 s before further incubation at 37 °C with 5% CO2 for 24 h. The assay medium then was aspirated, and cells were lysed with 100 µL per well PBS containing 0.1% Triton X-100 and complete protease inhibitor cocktail (Roche, Basel, Switzerland) followed by sonication for 3 s. Protein concentrations were determined with the Bradford assay. For PNGaseF catalyzed deglycosylation, 3 µL of PNGaseF (1500 U, NEB) was added to the cell lysate and the mixture was incubated at room temperature for 1 h before immunoblotting. For NIH3T3-(P23H opsin/GFP) cells, 15 µg of total protein were loaded per well onto an SDS-polyacrylamide gel; whereas for NIH3T3-(WT-opsin/GFP) cells, 5 µg of total protein was loaded per well. Opsin protein was immunostained with 0.2 μg mL^−1 horseradish peroxidase-conjugated 1D4 anti-rhodopsin antibody. Band intensities were measured with ImageJ software (http://imagej.nih.gov/ij/; National the Institutes of Health, Bethesda, MD, USA) and normalized to a glyceraldehyde 3-phosphate dehydrogenase (GAPDH) loading control. Full scans of immunoblotted membranes are shown in Supplementary Fig. 8.

[1] = target: bovine isorhodopsin (rod opsin regenerated with 9-cis-retinal), photoactivated (bovine) (UniProt P02699)
[2] = target: bovine rod opsin in ROS disc membranes (bovine) (UniProt P02699)
Chain of bovine rod opsin in ROS disc membranes (bovine) (P02699 whole entry): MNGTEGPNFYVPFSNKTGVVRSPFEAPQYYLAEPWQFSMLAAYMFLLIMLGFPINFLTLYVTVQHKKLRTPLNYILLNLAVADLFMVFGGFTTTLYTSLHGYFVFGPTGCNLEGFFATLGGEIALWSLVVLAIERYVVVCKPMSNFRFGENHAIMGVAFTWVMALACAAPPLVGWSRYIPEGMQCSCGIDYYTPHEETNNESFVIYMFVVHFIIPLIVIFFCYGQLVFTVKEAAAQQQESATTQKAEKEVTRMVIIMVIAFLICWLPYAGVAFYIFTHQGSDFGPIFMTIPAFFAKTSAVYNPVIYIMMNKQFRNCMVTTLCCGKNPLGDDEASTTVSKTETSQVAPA

Chain of Gt (P04695 whole entry, looked up): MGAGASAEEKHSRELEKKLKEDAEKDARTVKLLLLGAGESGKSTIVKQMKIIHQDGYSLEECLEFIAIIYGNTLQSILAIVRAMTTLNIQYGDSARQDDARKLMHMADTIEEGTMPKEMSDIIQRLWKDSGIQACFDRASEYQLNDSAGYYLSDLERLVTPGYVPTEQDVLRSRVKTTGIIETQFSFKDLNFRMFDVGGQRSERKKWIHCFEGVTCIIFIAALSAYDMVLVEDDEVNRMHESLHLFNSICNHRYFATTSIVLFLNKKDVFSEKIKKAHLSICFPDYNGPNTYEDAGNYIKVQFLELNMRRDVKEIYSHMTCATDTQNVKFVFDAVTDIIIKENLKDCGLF
Chain of bovine isorhodopsin (rod opsin regenerated with 9-cis-retinal), photoactivated (bovine) (P02699 whole entry): as the sequence (P02699 whole entry) above

Row | Compound | β-Gal fragment complementation assay Activity score (%) Max (Exp) (mouse P23H-opsin mutant) [%] | β-Gal fragment complementation assay Activity score (%) Max (fit) / Efficacy (mouse P23H-opsin mutant) [%] | pEC50 (mouse P23H-opsin mutant) | Immunostaining HCS MEM-Total ratio Max (fit) (mouse P23H opsin) | EC50 (mouse P23H opsin) [µM] | Improved glycosylation (P23H opsin) | initial rate of Gt activation upon illumination (intrinsic Gtα fluorescence after addition of 300 µM GTPγS), isorhodopsin regenerated with 40 µM 9-cis-retinal alone [1] | initial rate of Gt activation upon illumination (intrinsic Gtα fluorescence after addition of 300 µM GTPγS), isorhodopsin regenerated with 40 µM 9-cis-retinal and 40 µM YC-001 together [1] | initial rate of Gt activation (intrinsic Gtα fluorescence after addition of 300 µM GTPγS), opsin membranes treated with 40 µM YC-001 [2] | initial rate of Gt activation (intrinsic Gtα fluorescence after addition of 300 µM GTPγS), opsin membranes treated with 40 µM YC-014 [2] | initial rate of Gt activation (intrinsic Gtα fluorescence after addition of 300 µM GTPγS), opsin membranes treated with DMSO [2]
1 | O=C(NCCn1ncc2c(NCc3ccco3)ncnc21)c1cc(-c2ccccc2)on1 [Compound F2902-1134] | 23.1 | 31.5 | 4.67 | 0.031 | 4.15 | n |  |  |  |  | 
2 | O=C(NCC#CCN1CCCC1)c1cc(-c2ccccc2)on1 [Compound F6244-1415] | 24.8 | 25.2 | 5.06 | 0.063 | 4.2 | n |  |  |  |  | 
3 | Gt (from UniProt P04695 1-350) (complex) |  |  |  |  |  |  | -4.6 | -4.9 | -6.1 | -5.7 | -5.3
